Results taken from US20240269489A1, “TREATMENT OF THE CENTRAL NERVOUS SYSTEM” (ACT Therapeutics Ltd, priority 2021, published 2024).

Tested on: subcutaneous prostate cancer model (PC3)
Assay: Tumour specific uptake of Evans Blue after ACT, variable Enhancement MI
Assay type: in vivo, mice
Conditions: cluster composition 2 mL/kg i.v.; Enhancement 0.5 MHz, MI 0, 0.1, 0.2, 0.3, 0.4; tumours excised 30 min after treatment
Description: To investigate the effect of MI variance of the US Enhancement field, tumour specific uptake of Evans Blue (EB, fluorescent dye) has been investigated in a subcutaneous prostate cancer model (PC3) in mice. Five groups with Enhancement insonation MIs of 0, 0.1, 0.2, 0.3 and 0.4 were investigated (N=3 animals per group). […] 30 min after treatment, the tumors were excised and the amount of EB was measured by spectrophotometry at 620 nm.

Cc1cc(-c2ccc(/N=N/c3ccc4c(S(=O)(=O)O)cc(S(=O)(=O)O)c(N)c4c3O)c(C)c2)ccc1/N=N/c1ccc2c(S(=O)(=O)O)cc(S(=O)(=O)O)c(N)c2c1O [Evans Blue]
tissue uptake of Evans Blue as a function of Enhancement MI: increases from no US (MI=0) to MI=0.1 and further with MI=0.2, but then drops again with MI=0.3
